The nature of one series: Assay (X) pK, T½ in rat. It is filed as in vivo, Sprague Dawley rats. On the procedure: Assay (X)—pK—Determination of T½ in Rat
Pharmacokinetic (PK) studies rats were conducted in order to determine the T½ of mimylin peptide after i.v. and s.c. administration.
T½ values of the mimylin derivates of the invention is determined by pharmacokinetic studies in Sprague Dawley male rats, from Taconic Europe and the principles of laboratory animal care are followed.
An acclimatisation period of approximately 7 days was allowed before the animals entered the study. At start of the acclimatisation period the rats were in the weight range of 250-400 g.
The studies were conducted in an animal room which was illuminated to give a cycle of approximately 12 hours light and 12 hours darkness. The animals were group housed and had food and water ad lib. The animals were weighed on the days of dosing.
In the present studies the test substances were administered subcutaneously or intravenously in approximately 20 nmol/kg dose. The animals received a single subcutaneous injection to the neck for subtaneous administration or directly into the tail vein for intravenous administration. Each test substance was given to typically three but in some cases two or four animals.
A full plasma concentration-time profile, employing 8-10 sampling points, was obtained from each animal. In example blood samples were collected according to the following schedule: After subcutaneous or intravenous administration:
At each sampling time, 0.08 to 0.10 ml of blood was drawn from each animal. The blood samples were taken in the sublingual vein via venous puncture and the use of a capillary tube.
The blood samples were stabilised with EDTA. Blood samples were kept on ice for max 20 min. before centrifugation. Plasma was separated using centrifugation (i.e. at 4° C., 10 min., 1500G) and was immediately transferred to Micronic tubes or PCR plates. Approximately 40 μl plasma was transferred and was stored at −20° C. until assayed. The plasma samples were assayed for the content of mimylin compound by LCMS
The plasma concentration-time profiles were analysed by a non-compartmental pharmacokinetic analysis (NCA) using Phoenix WinNonlin 6.3 (Pharsight Inc., Mountain View, Calif., USA). NCA was performed using the individual plasma concentration-time profiles from each animal. T½ is the terminal half-life=In2/λz and was determined from λz, the first order rate constant associated with the terminal (log-linear) portion of the curve, estimated by linear regression of time vs. log concentration.

Series [1] in a line: Assay (IV) determination of solubility. It is filed as physicochemical. On the procedure: Assay (IV)—Determination of Solubility
The mimylin peptide was dissolved in water at ˜500 nmol/ml and mixed 1:1 with a series of buffers (100 mM glycylglycine pH 3.0, 100 mM glycylglycine pH 4.0, 100 mM glycylglycine pH 5.0, 100 mM bistrispropane pH 6.0, 100 mM bistrispropane pH 6.5, 100 mM bistrispropane pH 7.0, 100 mM bistrispropane pH 7.5, 100 mM bistrispropane pH 8.0).

In series [2] the target is T1, human amylin 3(a) receptor (human calcitonin receptor + RAMP-3), BHK570 cells (Homo sapiens, UniProt O60896+P30988).
T1 construct: host or cells: BHK570
The series can be described thus: Assay (II)b functional CRE-luciferase assay without albumin, human amylin receptor. To be noted: Tested without HSA; read-out: hAmylin-R funct. EC50. It is filed as cell-based. The method, boiled down: (§1)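 BHK570 cells stably expressing human calcitonin receptor with CRE-luciferase reporter, plus RAMP-3 for the amylin 3(a) line. Cells stimulated 3 hours at 37 °C in albumin-free assay medium (0.1% ovalbumin, 10 mM Hepes pH 7.4); cAMP-driven luciferase read by luminescence.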

The target in series [3] is T2, human amylin receptor (human calcitonin receptor + human RAMP3), BHK tk'ts 13 cells (Homo sapiens, UniProt O60896+P30988).
T2 construct: expressed in transfected cells; host or cells: BHK tk'ts 13
The series can be described thus: Assay (Va) binding to the human amylin receptor (whole cell). To be noted: read-out: hAmylin-R binding IC50. On the procedure: The day before the assay the cells were Seeded into Poly-D-Lysin coated 384W Opaque White, BD BioCoat plates (10000 cells/well) and Incubated overnight at 37° C., 5% CO2, 95% humidity.

Series [4] concerns the target T3, human calcitonin (a) receptor, BHK570 cells (Homo sapiens, UniProt P30988).
T3 construct: host or cells: BHK570
T3 sequence (P30988 25-474): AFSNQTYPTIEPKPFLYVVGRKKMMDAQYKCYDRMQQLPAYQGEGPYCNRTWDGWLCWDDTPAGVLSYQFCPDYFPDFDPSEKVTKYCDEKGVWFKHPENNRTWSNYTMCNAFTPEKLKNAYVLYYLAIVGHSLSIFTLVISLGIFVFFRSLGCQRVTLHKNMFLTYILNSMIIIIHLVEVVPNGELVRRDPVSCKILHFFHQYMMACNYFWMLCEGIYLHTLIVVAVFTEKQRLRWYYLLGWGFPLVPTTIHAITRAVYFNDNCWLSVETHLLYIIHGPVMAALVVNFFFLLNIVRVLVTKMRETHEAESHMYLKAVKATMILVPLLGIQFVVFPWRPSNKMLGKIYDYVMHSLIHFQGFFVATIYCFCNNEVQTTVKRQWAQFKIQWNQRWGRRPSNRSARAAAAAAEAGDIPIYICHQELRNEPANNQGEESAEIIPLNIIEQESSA
The series can be described thus: Assay (II)a functional CRE-luciferase assay with albumin, human calcitonin receptor. It is filed as cell-based. To be noted: Tested with HSA; read-out: hCTR funct. EC50. An excerpt:
Assay(II)a—Human Calcitonin and Amylin Receptor Assay
1. Luciferase Assay Outline
Activation of calcitonin and amylin (co-expression of calcitonin receptor and receptor activity modifying proteins (RAMP)) receptors lead to increased intracellular concentrations of cAMP. Consequently, transcription is activated by promoters containing multiple copies of the cAMP response element (CRE). It is thus possible to measure amylin activity by the use of a CRE luciferase reporter gene introduced into BHK cells also expressing calcitonin or amylin receptors.
2. Construction of Calcitonin (a)—and Amylin 3(a)—Receptor/CRE-Luc Cell Line.
A BHK570 cell line was stably transfected with the human calcitonin receptor and a CRE-responsive luciferase reporter gene. The cell line was further transfected with RAMP-3, using standard methods. This turns the calcitonin receptor into an amylin 3(a) receptor. Methotrexate, Neomycin, and Hygromycin are selection markers for luciferase, the calcitonin receptor, and RAMP-3, respectively.
To perform activity assays, BHK calcitonin (a) receptor- or amylin 3(a)-receptor/CRE-luc cells were seeded in white 96 well culture plates at a density of about 20.000 cells/well. […] After incubation overnight at 37° C. and 5% CO2, the growth medium was replaced by 50 μl/well assay medium (DMEM (without phenol red), Glutamax™, 10% FBS, and 10 mM Hepes, pH 7.4). Further, 50 μl/well of standard or sample in assay buffer were added.
After 3 hours incubation at 37° C. and 5% CO2, the assay medium with standard or sample were removed and replaced by 100 μl/well PBS. Further, 100 μl/well LucLite™ was added. The plates were sealed and incubated at room temperature for 30 minutes. Finally, luminescence was tested on a TopCounter (Packard) in SPC (single photon counting) mode.

Series [5] concerns the target T3, human calcitonin (a) receptor, BHK570 cells. The series can be described thus: Assay (II)b functional CRE-luciferase assay without albumin, human calcitonin receptor. In kind it is cell-based. To be noted: Tested without HSA; read-out: hCTR funct. EC50. The method, boiled down: as §1

The values that follow come from patent publication US9593149B2, “Amylin and calcitonin receptor agonist” (Novo Nordisk A/S, priority 2014, dated 2017).

Values after ≈ are worked out from the molar mass of the structure shown. Numbered stars: 1 amine (or outer) side, 2 acyl side, 3 side chain; on linkers, the order of the positions; unused ones are H or OH. Peptide text beside a SMILES is read from it. * marks the point of attachment. C18 diacid = O=C(O)CCCCCCCCCCCCCCCCC(=O)*; γGlu = O=C(O)[C@H](CCC(=O)[*:2])N[*:1]; C14 diacid = O=C(O)CCCCCCCCCCCCC(=O)*; AEEA = NCCOCCOCC(=O)O

T1 sequence (O60896 24-148, one chain of several): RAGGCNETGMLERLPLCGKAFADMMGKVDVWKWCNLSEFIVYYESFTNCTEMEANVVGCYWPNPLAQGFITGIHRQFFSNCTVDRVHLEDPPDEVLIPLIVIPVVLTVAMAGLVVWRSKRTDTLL
T2 sequence (O60896 24-148, one chain of several): as above

Usually half-life stands for how long it takes for the measured level to halve. In “Assay (X) pK, T½ in rat” (male, Sprague Dawley, plasma, sc, 20 nmol/kg), `CC(C)C[C@H](NC(=O)[C@H](CCCCN)NC(=O)CNC(=O)[C@H](CC(C)C)NC(=O)[C@@H](NC(=O)[C@@H]1CSSC[C@H](N)C(=O)N[C@@H](CO)C(=O)N[C@@H](CC(N)=O)C(=O)N[C@@H](CC(C)C)C(=O)N[C@@H](CO)C(=O)N[C@@H]([C@@H](C)O)C(=O)N1)C(C)C)C(=O)N[C@@H](CO)C(=O)N[C@@H](CCC(N)=O)C(=O)N[C@@H](CCC(=O)O)C(=O)N[C@@H](CC(C)C)C(=O)N[C@@H](Cc1c[nH]cn1)C(=O)N[C@@H](CCCCN)C(=O)N[C@@H](CC(C)C)C(=O)N[C@@H](CCC(N)=O)C(=O)N[C@H](C(=O)N[C@@H](Cc1ccc(O)cc1)C(=O)N1CCC[C@H]1C(=O)N[C@@H](CCCNC(=N)N)C(=O)N[C@H](C(=O)N[C@@H](CC(N)=O)C(=O)N[C@H](C(=O)NCC(=O)N[C@@H](CO)C(=O)NCC(=O)N[C@H](C(=O)N1CCC[C@H]1C(N)=O)[C@@H](C)O)[C@@H](C)O)[C@@H](C)O)[C@@H](C)O` [Salmon calcitonin, reference compound] showed a half-life of 1 h.
In the case of `CC(C)C[C@H](NC(=O)[C@H](C)NC(=O)[C@H](C)NC(=O)[C@@H](NC(=O)[C@H](CO)NC(=O)[C@H](CC(C)C)NC(=O)[C@H](CCC(=O)O)NC(=O)[C@H](CO)NC(=O)[C@H](C)NC(=O)[C@H](CCC(=O)O)NC(=O)COCCOCCNC(=O)COCCOCCNC(=O)COCCOCCNC(=O)COCCOCCNC(=O)CC[C@H](NC(=O)CC[C@H](NC(=O)CCCCCCCCCCCCC(=O)O)C(=O)O)C(=O)O)[C@@H](C)O)C(=O)NCC(=O)N[C@@H](CCCNC(=N)N)C(=O)N[C@@H](CC(C)C)C(=O)N[C@@H](CO)C(=O)N[C@@H](C)C(=O)N[C@@H](CCC(=O)O)C(=O)N[C@@H](CC(C)C)C(=O)N[C@@H](Cc1cnc[nH]1)C(=O)N[C@@H](CCC(=O)O)C(=O)N[C@@H](CC(C)C)C(=O)N[C@@H](C)C(=O)N[C@H](C(=O)N[C@@H](CC(C)C)C(=O)N1CCC[C@H]1C(=O)N[C@@H](CCCNC(=N)N)C(=O)N[C@H](C(=O)N[C@@H](CCC(=O)O)C(=O)N[C@H](C(=O)NCC(=O)N1CCC[C@H]1C(=O)N[C@@H](CCC(=O)O)C(=O)N[C@@H](CO)C(=O)N1CCC[C@H]1C(N)=O)[C@@H](C)O)[C@@H](C)O)[C@@H](C)O` [compound 5, [N-terminal(C14 diacid-2xgGlu-4xOEG)]mimylin] ({C14 diacid-γGlu-γGlu-AEEA-AEEA-AEEA-AEEA}-EASELSTAALGRLSAELHELATLPRTETGPESP-NH2), the “PK rat iv T½” value in “Assay (X) pK, T½ in rat” (i.v.) came to 6 h. Moreover, the “PK rat sc T½” value in the series “Assay (X) pK, T½ in rat” (s.c.) is 13 h. The Solubility entry in series [1] (pH 3.0), in series [1] (pH 4.0), in series [1] (pH 5.0), in series [1] (pH 6.0), in series [1] (pH 6.5) and in series [1] (pH 7.0) was “≧200 μM” throughout. Also, the Solubility result in series [1] (pH 7.5) and in series [1] (pH 8.0) was “≧200 μM” in each case.
By EC50 is commonly meant the midpoint of the concentration-response curve. For orientation: IC50 means the point on the concentration scale where inhibition reaches its midpoint. Usually solubility stands for how much of the substance goes into solution per volume. On to `CC(C)C[C@H](NC(=O)[C@H](CCCNC(=N)N)NC(=O)CNC(=O)[C@@H](NC(=O)[C@@H](NC(=O)[C@H](C)NC(=O)[C@@H](NC(=O)[C@H](CO)NC(=O)[C@@H](NC(=O)[C@H](CCC(=O)O)NC(=O)[C@H](CO)NC(=O)[C@H](C)NC(=O)CC[C@H](NC(=O)CCCCCCCCCCCCCCCCC(=O)O)C(=O)O)C(C)C)[C@@H](C)O)C(C)C)C(C)C)C(=O)N[C@@H](CO)C(=O)N[C@@H](C)C(=O)N[C@@H](CCC(=O)O)C(=O)N[C@@H](CC(C)C)C(=O)N[C@@H](Cc1c[nH]cn1)C(=O)N[C@@H](CCC(=O)O)C(=O)N[C@H](C(=O)N[C@@H](C)C(=O)N[C@H](C(=O)N[C@@H](CC(C)C)C(=O)N1CCC[C@H]1C(=O)N[C@@H](CCCNC(=N)N)C(=O)N[C@H](C(=O)N[C@@H](CCC(=O)O)C(=O)N[C@H](C(=O)NCC(=O)N[C@@H](CO)C(=O)NCC(=O)N[C@@H](CO)C(=O)N1CCC[C@H]1C(N)=O)[C@@H](C)O)[C@@H](C)O)[C@@H](C)O)C(C)C` [compound 102, [N-terminal(C18 diacid-gGlu), des1, 5V, 9V, 10V, 20V, 30S, 31G]mimylin] ({C18 diacid-γGlu}-ASEVSTAVVGRLSAELHEVATLPRTETGSGSP-NH2), for which the concentration giving a half-maximal response (EC50) in series [2] amounted to 0.012 nM; in series [4], 0.028 nM; in series [5], 0.006 nM. For the same compound, the 50% inhibitory concentration (IC50) in series [3] was determined as 1.65 nM. In addition, the solubility at 18 h in series [1] (bistrispropane buffer, pH 6.5) was at least 200 µM; in series [1] (bistrispropane buffer, pH 7.5), at least 200 µM; in series [1] (bistrispropane buffer, pH 6.0), at least 200 µM; in series [1] (bistrispropane buffer, pH 7.0), at least 200 µM; in series [1] (bistrispropane buffer, pH 8.0) it was at least 200 µM; in series [1] (glycylglycine buffer, pH 3.0), 6 µM (≈ 21.8 µg/mL). Besides, the solubility at 18 h in series [1] (glycylglycine buffer, pH 5.0) was at least 200 µM.
